Entries after “also recorded” stand apart in the source; their conditions may differ. Where two headings read alike, the source gives them in different places.
Experiments:
SKOV-3 = assay: SRB colorimetric cell growth inhibition assay, SKOV-3; assay type: cell-based; settings: Homo sapiens; for GI50: SK-OV-3, SKOV-3, GI=growth inhibition, read-out: GI50 SKOV-3; for IC (TGI): total growth inhibition (cytostatic effect), read-out: TGI SKOV-3
Method in brief: (§1)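 Growth inhibition (GI), total growth inhibition (TGI, cytostatic) and lethal concentration (LC, cytotoxic) come from an SRB-based colorimetric measure of growth and viability. Data are triplicate-well means ± SD.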

human topoisomerase I = target: T1, human topoisomerase I (Homo sapiens, UniProt P11387); assay: Topoisomerase I cleavage of radiolabeled 117-bp DNA fragment; assay type: biochemical; settings: for topoisomerase I-mediated DNA cleavage sites / cleavage profile / stimulation of DNA cleavage by topoisomerase I (radiolabeled DNA substrate): 117-bp DNA restriction fragment 3' end-labeled; for topoisomerase I-mediated DNA cleavage sites / cleavage profile: sequencing-type polyacrylamide gels
T1 sequence (P11387 1-765): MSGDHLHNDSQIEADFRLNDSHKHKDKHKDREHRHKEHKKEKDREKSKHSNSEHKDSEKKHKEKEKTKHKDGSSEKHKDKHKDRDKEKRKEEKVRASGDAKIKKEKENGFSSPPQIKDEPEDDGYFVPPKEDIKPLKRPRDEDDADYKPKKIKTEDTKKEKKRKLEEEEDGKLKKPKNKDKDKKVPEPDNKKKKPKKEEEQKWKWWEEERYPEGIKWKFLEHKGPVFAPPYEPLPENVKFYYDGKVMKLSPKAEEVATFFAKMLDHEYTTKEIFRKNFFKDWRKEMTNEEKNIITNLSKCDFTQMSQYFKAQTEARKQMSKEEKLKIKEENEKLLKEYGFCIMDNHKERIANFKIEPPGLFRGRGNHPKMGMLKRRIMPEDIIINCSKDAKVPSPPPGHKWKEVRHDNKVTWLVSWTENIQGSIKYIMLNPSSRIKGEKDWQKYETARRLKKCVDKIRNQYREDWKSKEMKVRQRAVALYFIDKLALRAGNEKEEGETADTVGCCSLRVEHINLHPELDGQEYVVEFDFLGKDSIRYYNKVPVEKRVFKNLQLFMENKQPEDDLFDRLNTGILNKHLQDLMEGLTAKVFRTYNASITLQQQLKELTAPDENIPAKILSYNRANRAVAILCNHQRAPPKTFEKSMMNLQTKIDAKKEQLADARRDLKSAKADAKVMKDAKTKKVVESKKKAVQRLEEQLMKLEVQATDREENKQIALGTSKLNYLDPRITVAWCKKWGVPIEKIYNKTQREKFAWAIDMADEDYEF
Source text: Two assays, based on DNA relaxation and DNA cleavage (Bailly, C. DNA relaxation and cleavage assays to study topoisomerase I inhibitors. Methods Enzymol. 2001, 340, 610-623) were used evaluate the effects of the lamellarin analogs on the catalytic activity of human topoisomerase I.
A second assay, based on the cleavage of a radiolabeled DNA substrate by topoisomerase I, was used to confirm that the cationic lamellarin derivatives do effectively function as topoisomerase I poisons. A 117-bp DNA restriction fragment uniquely end-labeled at the 3′ end was subjected to cleavage by topoisomerase I in the presence of the different compounds and the resulting DNA cleavage products were resolved on sequencing-type polyacrylamide gels. The advantage of this assay is to detect the cleavage sites and to locate their positions with nucleotide resolution, providing thus information on the site selectivity of cleavage.

fertilised sea urchin = fertilised sea urchin assay; cited from earlier work
HeLa-APL = assay: SRB colorimetric cell growth inhibition assay, HeLa-APL (aplidine resistant); assay type: cell-based; settings: Homo sapiens; for GI50: read-out: GI50 HELA-APL; for CC50: read-out: LC50 HELA-APL; for IC (TGI): read-out: TGI HELA-APL
Method in brief: (§2)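 Triplicate-well SRB colorimetry following continuous sample exposure of human tumour cells; reported parameters are GI, TGI for cytostatic effect, and LC for cytotoxic effect.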

HeLa = assay: SRB colorimetric cell growth inhibition assay, HeLa; assay type: cell-based; settings: Homo sapiens, HeLa; for GI50: read-out: GI50 HELA; for CC50: read-out: LC50 HELA; for IC (TGI): read-out: TGI HELA
Method in brief: as §2

[1] = SRB colorimetric cell growth inhibition assay, H-MEC-1; assay type: cell-based; settings: human
Method in brief: as §1

[2] = HELA-APL, cell killing (cytotoxic effect)
[3] = HELA-APL, total growth inhibition (cytostatic effect)
[4] = cell killing (cytotoxic effect)
[5] = total growth inhibition (cytostatic effect)
[6] = SK-OV-3, SKOV-3, cell killing (cytotoxic effect), read-out: LC50 SKOV-3

COc1cc(-c2c3c4cc(OC)c(O)cc4oc(=O)c3n3ccc4cc(O)c(OC)cc4c23)ccc1O [Compound 3, lamellarin D, reference compound]
GI50 (SKOV-3): 53.7 nM | IC (TGI) (SKOV-3; SK-OV-3, SKOV-3): 240 nM | topoisomerase I-mediated DNA cleavage sites / cleavage profile (human topoisomerase I; listed as LAM-D): T^↓G or C^↓G dinucleotides; also recorded: additional cleavage site at C^↓G73 | efficiency of topoisomerase I-mediated DNA cleavage at sites T↓G48 and T↓G81 (human topoisomerase I; compared with CPT): less efficient than CPT | inhibition of cell division (fertilised sea urchin): inhibition of cell division

COc1cc(-c2c3n(c4c(=O)oc5cc(OC(=O)[C@H](C)NC(=O)[C@H](C)NC(=O)OC(C)(C)C)c(OC)cc5c24)CCc2cc(OC(=O)[C@H](C)NC(=O)[C@H](C)NC(=O)OC(C)(C)C)c(OC)cc2-3)ccc1OC(=O)[C@H](C)NC(=O)[C@H](C)NC(=O)OC(C)(C)C [Compound 7]
GI50 (HeLa-APL): 1850 nM | CC50 (HeLa-APL): 7240 nM | IC (TGI) (HeLa-APL): 3660 nM | stimulation of DNA cleavage by topoisomerase I (radiolabeled DNA substrate) (human topoisomerase I): stimulate DNA cleavage by the enzyme | GI50 (HeLa): 830 nM | CC50 (HeLa): 4420 nM | IC (TGI) (HeLa): 1910 nM

COc1cc(-c2c3n(c4c(=O)oc5cc(OC(=O)CCc6ccccc6)c(OC)cc5c24)CCc2cc(OC(=O)CCc4ccccc4)c(OC)cc2-3)ccc1OC(=O)CCc1ccccc1 [Compound 11]
GI50 (HeLa-APL; HELA-APL, GI=growth inhibition): 5230 nM | CC50 (HeLa-APL; [2]): 11100 nM | IC (TGI) (HeLa-APL; [3]): 11100 nM | GI50 (HeLa; GI=growth inhibition): 208 nM | CC50 (HeLa; [4]): 11100 nM | IC (TGI) (HeLa; [5]): 1350 nM

COc1cc(-c2c3c4cc(OC)c(OC(=O)[C@H](N)C(C)C)cc4oc(=O)c3n3ccc4cc(OC(=O)[C@H](N)C(C)C)c(OC)cc4c23)ccc1OC(=O)[C@H](N)C(C)C [Compound 17]
GI50 (HeLa-APL; HELA-APL, GI=growth inhibition): 119 nM | CC50 (HeLa-APL; [2]): 1850 nM | IC (TGI) (HeLa-APL; [3]): 353 nM | stimulation of DNA cleavage by topoisomerase I (radiolabeled DNA substrate) (human topoisomerase I): no difference between the (L) (36) and (D) (17) Val isomers | GI50 (HeLa; GI=growth inhibition): 109 nM | CC50 (HeLa; [4]): 878 nM | IC (TGI) (HeLa; [5]): 359 nM

COc1cc(-c2c3n(c4c(=O)oc5cc(OC(=O)[C@@H](N)Cc6c[nH]c7ccccc67)c(OC)cc5c24)CCc2cc(OC(=O)[C@@H](N)Cc4c[nH]c5ccccc45)c(OC)cc2-3)ccc1OC(=O)[C@@H](N)Cc1c[nH]c2ccccc12 [Compound 24]
GI50 (SKOV-3): 1670 nM | LC50 (concentration causing 50% net cell killing) (SKOV-3; [6]): 6900 nM | IC (TGI) (SKOV-3; SK-OV-3, SKOV-3): 3390 nM | LC50 (concentration giving 50% net cell killing) ([1]; H-MEC-1, cell killing (cytotoxic effect), read-out: LC50 H-MEC-1): 5970 nM

COc1cc(-c2c3n(c4c(=O)oc5cc(OC(=O)[C@H](N)C(C)C)c(OC)cc5c24)CCc2cc(OC(=O)[C@H](N)C(C)C)c(OC)cc2-3)ccc1OC(=O)[C@H](N)C(C)C [Compound 32]
GI50 (SKOV-3): 1860 nM | LC50 (concentration causing 50% net cell killing) (SKOV-3; SK-OV-3, read-out: LC50 SKOV-3): 7270 nM | IC (TGI) (SKOV-3; SK-OV-3, SKOV-3): 3670 nM | LC50 (concentration giving 50% net cell killing) [1]: 5370 nM

COc1cc(-c2c3c4cc(OC)c(OC(=O)[C@@H]5CCCN5)cc4oc(=O)c3n3ccc4cc(OC(=O)[C@@H]5CCCN5)c(OC)cc4c23)ccc1OC(=O)[C@@H]1CCCN1 [Compound 33]
GI50 (SKOV-3): 39.1 nM | LC50 (concentration causing 50% net cell killing) (SKOV-3; [6]): 5030 nM | IC (TGI) (SKOV-3; SK-OV-3, SKOV-3): 228 nM | LC50 (concentration giving 50% net cell killing) ([1]; H-MEC-1 cells, H-MEC-1, cell killing (cytotoxic effect), read-out: LC50 H-MEC-1): 46.3 nM | topoisomerase I-mediated DNA cleavage sites / cleavage profile (human topoisomerase I): Cleavage profiles identical to that of 3

Source: patent publication US7396837B2, “Antitumoral analogs of lamellarins” (Pharma Mar, S.A.U., priority 2002, dated 2008)
